Common to all, as to test: inhibition of tumour cell growth, NCI panel, 48 h
The test system of assay [1] is CCRF-CEM leukemia.
The subject of assay [2] is MALME-3M melanoma.
Assay [3] has as its system PC-3 prostate.
In assay [4] the test system is UACC-257 melanoma.
Assay [5] concerns HT29 colon.
For assay [6], the system named is SNB-19 CNS.
Assay [7] relates to MDA-N.
Assay [8] concerns ACHN renal.
Assay [9] deals with CAKI-1 renal.
Assay [10] has as its system HL-60(TB) leukemia.

Structures are written as SMILES.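 Five concentrations, 48 hours, 96-well plates. GI50: concentration for 50% inhibition of growth. TGI: concentration producing complete growth inhibition.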 *1 amine or outer side, *2 acyl side, *3 side chain or, on linkers, in order; H or OH if unused. Where a SMILES comes first, the peptide text is derived from it. Bridges are numbered along the chain shown (N, C = ends). [ ]: non-standard residue; d: D form. The star is where a group is joined. ξ: configuration not given here. X34 = O=C(C(CCCCNO[*:3])N[*:1])[*:2]; Fmoc = O=C(OCC1c2ccccc2-c2ccccc21)*; ξW = NC(Cc1c[nH]c2ccccc12)C(=O)O; ξP = O=C(O)C1CCCN1

This is an account of results in PubChem BioAssay (NCI).

Regarding `COc1ccc(C2CC(c3c(O)ccc4ccccc34)=NN2c2ccc([N+](=O)[O-])cc2[N+](=O)[O-])cc1OC` (stereo not given), the TGI was greater than 50.3 µM in [1]; 56.4 µM in [2]; greater than 70.3 µM in assay [3]; greater than 93.9 µM in assay [4]; 38.3 µM in [5]; greater than 60.3 µM in [6]. The TGI in assay [7] was greater than 100 µM; in assay [8], 92.2 µM; in assay [9] it was 69.1 µM.

Regarding `S=C(N/N=C\C=N/NC(=S)N1CCCCC1)N1CCCCC1`, the TGI in assay [2] was greater than 35 µM; in assay [3], greater than 100 µM; in [4] it was greater than 100 µM; in [5], greater than 100 µM; in assay [6], greater than 100 µM; in assay [7] it was greater than 100 µM. Further, the TGI in assay [9] is greater than 100 µM.

With `CN(C)CCCOc1nc2c(c(=O)n(C)c(=O)n2C)n1C` (tested in a mixture with another compound), the TGI in assay [1] is greater than 100 µM; in assay [2] it was 27.4 µM; in [3], greater than 100 µM; in [4], greater than 100 µM; in [5], greater than 100 µM; in assay [6], greater than 100 µM. The TGI in assay [8] was 68.8 µM; in [9], 66.3 µM.

For `CN(C)/N=N/c1nc2c(c(=O)n(C)c(=O)n2C)n1C`, the TGI in [1], in assay [2], in assay [3], in assay [4], in assay [5] and in [6] was greater than 100 µM throughout. The TGI in assay [7], in assay [8] and in assay [9] was greater than 100 µM throughout.

Regarding `COc1ccc2[nH]c(O)c(/C=c3/cc4c(c(-c5cc(OC)c(OC)c(OC)c5)n3)=Nc3ccccc3-4)c2c1`, the GI50 is 1410 nM in [1]; 63.6 µM in assay [2]; 5.47 µM in [3]; 29.7 µM in assay [4]; 2410 nM in assay [5]; 7.46 µM in [10]. The GI50 in [6] was 26 µM; in assay [8], 7.47 µM; in assay [9] it was greater than 100 µM. Besides, the TGI in assay [1] was 12.4 µM; in assay [2], greater than 100 µM; in [3], greater than 100 µM; in assay [4] it was greater than 100 µM; in assay [5] it was 7.05 µM; in assay [10], 34 µM. Besides, the TGI in [6], in [8] and in [9] was greater than 100 µM each time.

Regarding `COc1ccccc1Nc1nc(N)nc(N)c1N=O`, the TGI in [1], in assay [2], in assay [3], in assay [4], in assay [5] and in assay [10] was greater than 100 µM in each case. Besides, the TGI in [6], in assay [7] and in [8] was greater than 100 µM each time.

On to `COc1cccc2c(N)c3cccc(C(=O)NCCN(C)C)c3nc12`, for which the TGI was 0.288 µM in assay [1]; 0.501 µM in assay [2]; 1.7 µM in assay [3]; 3.41 µM in assay [4]; 0.633 µM in assay [5]; 1.44 µM in [6]. For the same molecule, the TGI in [7] stood at 0.982 µM; in assay [8] it was 2.03 µM; in assay [9] it was 2.21 µM.

In the case of `O=C(CCCCCCCCC(=O)NN1C(=O)/C(=C\c2ccc(O)c(O)c2)SC1c1ccc(Cl)cc1)NN1C(=O)/C(=C\c2ccc(O)c(O)c2)SC1c1ccc(Cl)cc1` (stereo not given), the TGI in assay [2] was greater than 100 µM; in assay [3] it was greater than 100 µM; in assay [4], greater than 100 µM; in [5], greater than 100 µM; in [6], greater than 53.1 µM; in [7], greater than 100 µM. Further, the values for the TGI in [8] and in assay [9] were 71.8 µM and greater than 88.1 µM, respectively.

With `CC(C)Sc1nc(C#N)cc2c1CCCC2`, the TGI was 55.8 µM in [1]; greater than 100 µM in assay [2]; greater than 100 µM in assay [3]; greater than 100 µM in assay [4]; greater than 100 µM in assay [5]; greater than 100 µM in assay [6]. Moreover, the TGI in assay [7], in assay [8] and in assay [9] was greater than 100 µM each time.

Turning to `O=C(CC(=O)n1nc(-c2ccccc2)c(N=Nc2ccccc2C(=O)O)c1-c1ccccc1)Nc1ccc(Cl)cc1`, the TGI is greater than 100 µM in [2]; greater than 100 µM in assay [3]; greater than 100 µM in assay [4]; greater than 100 µM in assay [5]; 40.9 µM in assay [10]; 81.8 µM in assay [6]. Moreover, the TGI in assay [7] and in assay [8] was greater than 100 µM throughout.

Consider `CCOC(=O)C1Cc2[nH]c3ccccc3c2C(C)C1C` (stereo not given), for which the TGI in assay [1] stood at 57.4 µM; in assay [2], 33.2 µM; in [4], 32.3 µM; in [6], 34.5 µM; in assay [8], 39.8 µM; in assay [9] it was 33.9 µM.

Turning to `O=C1/C(=C/c2ccccc2)N=C(c2ccccc2)N1n1c(-c2ccccc2)nc2ccccc2c1=O`, the TGI in [1], in assay [2], in assay [3], in [4], in [5] and in [10] was greater than 100 µM each time. Also, the TGI in assay [6], in assay [7] and in assay [8] was greater than 100 µM each time.

As to `Oc1ccc(/C=C/c2cc(O)cc(O)c2)cc1`, the TGI in assay [3], in assay [4], in assay [5], in [10], in [6] and in assay [7] was greater than 100 µM throughout. In addition, the TGI in assay [8] and in assay [9] was greater than 100 µM in each case.

As for `O=C(CN1c2ccccc2Sc2ccccc21)N1CCNCC1`, the TGI in assay [1], in assay [2], in assay [3], in [4], in assay [5] and in [10] was greater than 100 µM each time. For the same molecule, the TGI in assay [6], in assay [7] and in assay [8] was greater than 100 µM throughout.

For `O=C(/C=C/c1ccc(O)c([N+](=O)[O-])c1)CC(=O)/C=C/c1ccc(O)c([N+](=O)[O-])c1`, the TGI in [1] is greater than 100 µM; in assay [3], greater than 100 µM; in assay [4], greater than 100 µM; in assay [5], greater than 100 µM; in [10] it was 44.6 µM; in assay [6], greater than 100 µM. For the same molecule, the TGI in [7] and in assay [8] was greater than 100 µM each time.

Take `C=C(C)C12CC(COC(=O)c3ccccc3)C34OC5(OC1C3C1OC1(CO)C(O)C1(O)C(OC(=O)c3ccccc3)C(C)C(C(C)CCCCCCC5O)C14)O2` (stereo not given): the TGI was greater than 100 µM in [1]; greater than 100 µM in assay [2]; greater than 100 µM in assay [3]; greater than 100 µM in assay [4]; 54.7 µM in [5]; greater than 100 µM in assay [6]. Moreover, the TGI in assay [7], in [8] and in [9] was greater than 100 µM in each case.

`Cn1cc2ccccc2c1-c1nc(N)nc(F)n1`: the TGI in assay [1], in assay [2], in assay [4], in assay [5], in [10] and in [6] was greater than 100 µM each time. The TGI in [8] and in [9] was greater than 100 µM in each case.

Regarding `O=C(O)CN(CCNC(=O)OCC1c2ccccc2-c2ccccc21)CCNC(=O)OCC1c2ccccc2-c2ccccc21`, the TGI amounted to 63 µM in assay [1]; 38.9 µM in assay [2]; 49 µM in assay [3]; 68.8 µM in assay [4]; 32.9 µM in assay [5]; 50.1 µM in [10]. Besides, the TGI in [6] was 73.4 µM; in [7], 36.7 µM; in assay [8], 35.1 µM.

Consider `c1ccc2c(c1)OC(N1CCCC1)c1cnc(N3CCCC3)nc1-2` (stereo not given), for which the TGI in [1] was 67.3 µM; in assay [2], greater than 100 µM; in [3], greater than 100 µM; in assay [4], 40 µM; in assay [5], greater than 100 µM; in assay [10] it was 66.5 µM. For the same molecule, the TGI is greater than 100 µM in assay [6], greater than 100 µM in [8] and 78 µM in [9].

As for `NC(=O)CNC(=O)C1CCCN1C(=O)C1CCCCNOC(=O)CC[C@@H](NC(=O)OCC2c3ccccc3-c3ccccc32)C(=O)NC(Cc2c[nH]c3ccccc23)C(=O)N1` (stereo not given in full) (Fmoc-[dE][ξW][X34][ξP]G-NH2; ester 1-3), the TGI in [1], in [2], in assay [3], in [4], in assay [5] and in [10] was greater than 100 µM in each case. The TGI in assay [6], in assay [8] and in assay [9] was greater than 100 µM throughout.

As for `CC1=C(O)C(=O)[C@@H]2O[C@@H]2C1=O`, the TGI in [1] was 8.09 µM; in assay [2] it was 17.2 µM; in assay [4], 23.9 µM; in [5] it was 36.6 µM; in assay [10] it was 8.59 µM; in [6], 115 µM. The same molecule had a TGI in assay [9] of 16.7 µM.

For `CC(C)c1ccc2[nH]c(O)c(-c3[nH]c4ccccc4c3N=O)c2c1`, the TGI worked out at 12.9 µM in assay [1]; 14.4 µM in assay [2]; 19.4 µM in [3]; 24.5 µM in assay [4]; 15 µM in assay [5]; 36.1 µM in [6]. The TGI was found to be 19.2 µM in assay [7], 14.6 µM in assay [8] and 22.9 µM in assay [9].

For the molecule `COc1ccc(-c2cc(-c3ccco3)c(C#N)c(=S)n2C2OC(COC(C)=O)C(OC(C)=O)C(OC(C)=O)C2OC(C)=O)cc1` (stereo not given), the TGI amounted to 16.9 µM in [2]; 16.5 µM in assay [3]; 14.8 µM in assay [5]; 20.7 µM in assay [10]; 19.1 µM in assay [6]; 19.2 µM in assay [7]. Also, the TGI in assay [8] was 19.4 µM; in [9] it was 13.9 µM.

As for `Cc1ccc(-c2c(C#N)c(-c3ccccc3)n(NS(=O)(=O)c3ccccc3)c(=O)c2C#N)cc1`, the TGI in [1], in assay [2], in [3], in assay [4], in assay [5] and in assay [6] was greater than 100 µM in each case. Further, the TGI in assay [7], in [8] and in [9] was greater than 100 µM in each case.

Turning to `COc1ccc(C(C#N)NNC(=O)c2ccccc2O)cc1OC` (stereo not given), the TGI was greater than 100 µM in assay [1]; greater than 100 µM in [2]; greater than 100 µM in assay [4]; greater than 100 µM in assay [5]; 30.2 µM in assay [10]; 96.6 µM in [8]. In [9], this molecule registered a TGI of 61.4 µM.

As for `O=c1[nH]n2c(=O)cc[nH]c2c1-c1nnns1`, the TGI in assay [1], in [2], in assay [5], in assay [10], in assay [6] and in [8] was greater than 100 µM throughout. In assay [9], this molecule came in with a TGI greater than 100 µM.

In the case of `CCCc1cc(=O)c2c(C)c3[nH]c4ccc(Cl)cc4c3c(C)c2[nH]1`, the TGI in [1] was 5.83 µM; in [2] it was 23 µM; in assay [3] it was 14.7 µM; in assay [4] it was 4.74 µM; in assay [5] it was 3.31 µM; in assay [6], 8.9 µM. Moreover, the TGI was 3.9 µM in assay [7], 3.71 µM in assay [8] and 4.37 µM in [9].

Consider `CC(CN1c2ccccc2Sc2ccccc21)N(C)C` (stereo not given), for which the TGI in [1] was 40.1 µM; in [2], 34.5 µM; in assay [3] it was 31.2 µM; in assay [4], 39.4 µM; in assay [5], 30.8 µM; in assay [10], 39.9 µM. For the same molecule, the TGI in assay [6] was determined as 33 µM; in [8], 30.7 µM; in assay [9], 34.1 µM.

For the molecule `N.N.N.O=[N+]([O-])[O-].O=[N+]([O-])[O-].O=[N+]([O-])[O-].O=[N+]([O-])[O-].[Co+3]`, the TGI in [1], in assay [2], in assay [4], in assay [5], in assay [10] and in assay [6] was greater than 100 µM throughout. The molecule also yielded a TGI in assay [8] greater than 100 µM.
